Reference: ChEMBL document CHEMBL1201861, “Genomics of Drug Sensitity in Cancer screening data, Wellcome Trust Sanger Institute”

What was measured:
COR-L279 = test: SANGER: Inhibition of human COR-L279 cell growth in a cell viability assay.; format: functional, cell-based
CPC-N = test: cells; format: functional, cell-based; conditions: Homo sapiens;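 further: growth inhibition of CPC-N cells, with a cell viability assay as the readout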
Description: SANGER: Inhibition of human CPC-N cell growth in a cell viability assay.

DG-75 = test: cells; format: functional, cell-based; conditions: Homo sapiens;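 further: growth inhibition of DG-75 cells, read out with a cell viability assay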
Description: SANGER: Inhibition of human DG-75 cell growth in a cell viability assay.

ECC12 = test: cells; format: functional, cell-based; conditions: Homo sapiens
Description: SANGER: Inhibition of human ECC12 cell growth in a cell viability assay.

EW-12 = test: SANGER: Inhibition of human EW-12 cell growth in a cell viability assay.; format: functional, cell-based
GDM-1 = test: cells; format: functional, cell-based; conditions: Homo sapiens;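 further: cell viability readout used to measure growth inhibition of human GDM-1 cells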
Description: SANGER: Inhibition of human GDM-1 cell growth in a cell viability assay.

HCC1599 = test: cells; format: functional, cell-based; conditions: Homo sapiens;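 further: growth inhibition of HCC1599 cells, read out in a cell viability assay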
Description: SANGER: Inhibition of human HCC1599 cell growth in a cell viability assay.

IM-9 = test: SANGER: Inhibition of human IM-9 cell growth in a cell viability assay.; format: functional, cell-based
JIYOYE = test: cells; format: functional, cell-based; conditions: Homo sapiens
Description: SANGER: Inhibition of human JiyoyeP-2003 cell growth in a cell viability assay.

LOUCY = test: cells; format: functional, cell-based; conditions: Homo sapiens;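 further: growth inhibition of human LOUCY cells, read out with a cell viability assay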
Description: SANGER: Inhibition of human LOUCY cell growth in a cell viability assay.

LU-165 = test: cells; format: functional, cell-based; conditions: Homo sapiens
Description: SANGER: Inhibition of human LU-165 cell growth in a cell viability assay.

MDA-MB-134-VI = test: cells; format: functional, cell-based; conditions: Homo sapiens
Description: SANGER: Inhibition of human MDA-MB-134-VI cell growth in a cell viability assay.

NCI-H128 = test: SANGER: Inhibition of human NCI-H128 cell growth in a cell viability assay.; format: functional, cell-based
NCI-H187 = test: cells; format: functional, cell-based; conditions: Homo sapiens;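 further: growth inhibition of NCI-H187 cells, read out as cell viability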
Description: SANGER: Inhibition of human NCI-H187 cell growth in a cell viability assay.

NCI-H2227 = test: cells; format: functional, cell-based; conditions: Homo sapiens;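 further: growth inhibition of the human cell line, read out with a cell viability assay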
Description: SANGER: Inhibition of human NCI-H2227 cell growth in a cell viability assay.

NCI-H322M = test: cells; format: functional, cell-based; conditions: Homo sapiens;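 further: cell viability assay measuring inhibition of growth of human NCI-H322M cells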
Description: SANGER: Inhibition of human NCI-H322M cell growth in a cell viability assay.

NCI-H716 = test: cells; format: functional, cell-based; conditions: Homo sapiens;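 further: growth inhibition of human NCI-H716 cells, measured by a cell viability assay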
Description: SANGER: Inhibition of human NCI-H716 cell growth in a cell viability assay.

OPM-2 = test: cells; format: functional, cell-based; conditions: Homo sapiens;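 further: growth of OPM-2 cells measured with a viability assay, IC50 for suppression of proliferation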
Description: SANGER: Inhibition of human OPM-2 cell growth in a cell viability assay.

SKM-1 = test: SANGER: Inhibition of human SKM-1 cell growth in a cell viability assay.; format: functional, cell-based
SU-DHL-1 = test: SANGER: Inhibition of human SU-DHL-1 cell growth in a cell viability assay.; format: functional, cell-based
THP-1 = test: cells; format: functional, cell-based; conditions: Homo sapiens;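 further: growth inhibition of THP-1 cells, read out via a cell viability assay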
Description: SANGER: Inhibition of human THP-1 cell growth in a cell viability assay.

TUR = test: cells; format: functional, cell-based; conditions: Homo sapiens;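 further: growth inhibition of human TUR cells, read out with a cell viability assay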
Description: SANGER: Inhibition of human TUR cell growth in a cell viability assay.

YT = test: cells; format: functional, cell-based; conditions: Homo sapiens
Description: SANGER: Inhibition of human YT cell growth in a cell viability assay.

Calu-1 = test: SANGER: Inhibition of human Calu-1 cell growth in a cell viability assay.; format: functional, cell-based
DMS-53 = test: cells; format: functional, cell-based, Homo sapiens; conditions: Homo sapiens, DMS-53;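 further: cell viability assay measuring growth inhibition of human DMS-53 cells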
Description: SANGER: Inhibition of human DMS-53 cell growth in a cell viability assay.

DV-90 = test: cells; format: functional, cell-based; conditions: Homo sapiens;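 further: Read-out is a viability assay, with IC50 reflecting the drop in DV-90 cell growth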
Description: SANGER: Inhibition of human DV-90 cell growth in a cell viability assay.

EFE-184 = test: cells; format: functional, cell-based; conditions: Homo sapiens
Description: SANGER: Inhibition of human EFE-184 cell growth in a cell viability assay.

EHEB = test: cells; format: functional, cell-based; conditions: Homo sapiens;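 further: growth inhibition of human EHEB cells, read out with a cell viability assay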
Description: SANGER: Inhibition of human EHEB cell growth in a cell viability assay.

EW-7 = test: SANGER: Inhibition of human EW-7 cell growth in a cell viability assay.; format: functional, cell-based; conditions: Homo sapiens, EW-7
HCC1143 = test: cells; format: functional, cell-based; conditions: Homo sapiens;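 further: growth inhibition of human HCC1143 cells, read out with a cell viability assay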
Description: SANGER: Inhibition of human HCC1143 cell growth in a cell viability assay.

HCT-15 = test: cells; format: functional, cell-based, Homo sapiens; conditions: Homo sapiens, HCT-15;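 further: cell viability readout, IC50 reflecting suppression of HCT-15 cell growth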
Description: SANGER: Inhibition of human HCT-15 cell growth in a cell viability assay.

HuO9 = test: cells; format: functional, cell-based, Homo sapiens; conditions: Homo sapiens, HuO9;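 further: growth inhibition of HuO9 cells, read out with a cell viability assay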
Description: SANGER: Inhibition of human HuO9 cell growth in a cell viability assay.

IPC-298 = test: SANGER: Inhibition of human IPC-298 cell growth in a cell viability assay.; format: functional, cell-based
MDA-MB-468 = test: cells; format: functional, cell-based; conditions: Homo sapiens
Description: SANGER: Inhibition of human MDA-MB-468 cell growth in a cell viability assay.

MEL-JUSO = test: cells; format: functional, cell-based, Homo sapiens; conditions: Homo sapiens, MEL-JUSO;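 further: growth inhibition of human MEL-JUSO cells, read out with a cell viability assay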
Description: SANGER: Inhibition of human MEL-JUSO cell growth in a cell viability assay.

MES-SA = test: cells; format: functional, cell-based, Homo sapiens; conditions: Homo sapiens, MES-SA;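 further: growth inhibition of human MES-SA cells, read out with a cell viability assay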
Description: SANGER: Inhibition of human MES-SA cell growth in a cell viability assay.

MFE-296 = test: SANGER: Inhibition of human MFE-296 cell growth in a cell viability assay.; format: functional, cell-based
NCI-H1618 = test: cells; format: functional, cell-based; conditions: Homo sapiens;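 further: growth inhibition of human NCI-H1618 cells, measured by a cell viability assay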
Description: SANGER: Inhibition of human NCI-H1618 cell growth in a cell viability assay.

NCI-H1734 = test: cells; format: functional, cell-based; conditions: Homo sapiens;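 further: growth inhibition of human NCI-H1734 cells, read out with a cell viability assay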
Description: SANGER: Inhibition of human NCI-H1734 cell growth in a cell viability assay.

RT-4 = test: SANGER: Inhibition of human RT4 cell growth in a cell viability assay.; format: functional, cell-based; conditions: Homo sapiens, RT-4
SK-CO-1 = test: cells; format: functional, cell-based; conditions: Homo sapiens;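 further: growth inhibition of SK-CO-1 cells, determined by a viability readout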
Description: SANGER: Inhibition of human SK-CO-1 cell growth in a cell viability assay.

SNG-M = test: cells; format: functional, cell-based; conditions: Homo sapiens
Description: SANGER: Inhibition of human SNG-M cell growth in a cell viability assay.

SNU-475 = test: cells; format: functional, cell-based; conditions: Homo sapiens
Description: SANGER: Inhibition of human SNU-475 cell growth in a cell viability assay.

23132-87 = test: cells; format: functional, cell-based, Homo sapiens; conditions: Homo sapiens
Description: SANGER: Inhibition of human 23132-87 cell growth in a cell viability assay.

C-4-II = test: SANGER: Inhibition of human C-4-II cell growth in a cell viability assay.; format: functional, cell-based
TT = test: cells; format: functional, cell-based; conditions: Homo sapiens
Description: SANGER: Inhibition of human TT cell growth in a cell viability assay.

CCF-STTG1 = test: cells; format: functional, cell-based; conditions: Homo sapiens;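 further: growth inhibition of human CCF-STTG1 cells, determined with a cell viability read-out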
Description: SANGER: Inhibition of human CCF-STTG1 cell growth in a cell viability assay.

NCI-H1573 = test: cells; format: functional, cell-based; conditions: Homo sapiens;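 further: growth inhibition of NCI-H1573 cells, read out with a cell viability assay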
Description: SANGER: Inhibition of human NCI-H1573 cell growth in a cell viability assay.

C=C1C(=O)O[C@@H]2C3O[C@]3(C)CC/C=C(\C)CC[C@@H]12 (stereo not given in full)
IC50 (COR-L279): > 5 µM
IC50 (CPC-N): > 5 µM
IC50 (DG-75): > 5 µM
IC50 (ECC12): > 5 µM
IC50 (EW-12): > 5 µM
IC50 (GDM-1): > 5 µM
IC50 (HCC1599): > 5 µM
IC50 (IM-9): > 5 µM
IC50 (JIYOYE): > 5 µM
IC50 (LOUCY): > 5 µM
IC50 (LU-165): > 5 µM
IC50 (MDA-MB-134-VI): > 5 µM
IC50 (NCI-H128): > 5 µM
IC50 (NCI-H187): > 5 µM
IC50 (NCI-H2227): > 5 µM
IC50 (NCI-H322M): > 5 µM
IC50 (NCI-H716): > 5 µM
IC50 (OPM-2): > 5 µM
IC50 (SKM-1): > 5 µM
IC50 (SU-DHL-1): > 5 µM
IC50 (THP-1): > 5 µM
IC50 (TUR): > 5 µM
IC50 (YT): > 5 µM

COC(=O)CNC(=O)C(=O)OC
IC50 (COR-L279): > 4000 µM
IC50 (CPC-N): > 4000 µM
IC50 (Calu-1): 896 µM
IC50 (DG-75): 1050 µM
IC50 (DMS-53): 181 µM
IC50 (DV-90): > 4000 µM
IC50 (ECC12): 1800 µM
IC50 (EFE-184): 553 µM
IC50 (EHEB): 271 µM
IC50 (EW-7): 729 µM
IC50 (GDM-1): 121 µM
IC50 (HCC1143): > 4000 µM
IC50 (HCC1599): 129 µM
IC50 (HCT-15): 1820 µM
IC50 (HuO9): 589 µM
IC50 (IM-9): > 4000 µM
IC50 (IPC-298): 1670 µM
IC50 (JIYOYE): 291 µM
IC50 (LOUCY): 10.3 µM
IC50 (LU-165): 804 µM
IC50 (MDA-MB-134-VI): > 4000 µM
IC50 (MDA-MB-468): > 4000 µM
IC50 (MEL-JUSO): 275 µM
IC50 (MES-SA): 1070 µM
IC50 (MFE-296): 318 µM
IC50 (NCI-H1618): > 4000 µM
IC50 (NCI-H1734): > 4000 µM
IC50 (NCI-H187): 595 µM
IC50 (NCI-H2227): 3060 µM
IC50 (NCI-H322M): > 4000 µM
IC50 (NCI-H716): 1740 µM
IC50 (OPM-2): 28.8 µM
IC50 (RT-4): 649 µM
IC50 (SK-CO-1): > 4000 µM
IC50 (SNG-M): > 4000 µM
IC50 (SNU-475): 2580 µM
IC50 (SU-DHL-1): 125 µM
IC50 (23132-87): > 4000 µM
IC50 (C-4-II): 552 µM
IC50 (THP-1): > 4000 µM
IC50 (TT): 538 µM
IC50 (TUR): 171 µM
IC50 (YT): 23.4 µM
IC50 (CCF-STTG1): > 4000 µM

C[C@]1(O)C[C@@H](c2nc(-c3ccc4ccc(-c5ccccc5)nc4c3)c3c(N)nccn32)C1 [LINSITINIB]
IC50 (COR-L279): > 2.56 µM
IC50 (CPC-N): > 2.56 µM
IC50 (Calu-1): > 2.56 µM
IC50 (DG-75): > 2.56 µM
IC50 (DMS-53): > 2.56 µM
IC50 (DV-90): > 2.56 µM
IC50 (EFE-184): > 2.56 µM
IC50 (EHEB): > 2.56 µM
IC50 (EW-7): 0.189 µM
IC50 (GDM-1): 0.137 µM
IC50 (HCC1143): 2.45 µM
IC50 (HCC1599): > 2.56 µM
IC50 (HCT-15): > 2.56 µM
IC50 (IM-9): > 2.56 µM
IC50 (IPC-298): > 2.56 µM
IC50 (JIYOYE): > 2.56 µM
IC50 (LOUCY): > 2.56 µM
IC50 (LU-165): > 2.56 µM
IC50 (MDA-MB-134-VI): > 2.56 µM
IC50 (MDA-MB-468): > 2.56 µM
IC50 (MEL-JUSO): 1.16 µM
IC50 (MES-SA): > 2.56 µM
IC50 (MFE-296): > 2.56 µM
IC50 (NCI-H1573): > 2.56 µM
IC50 (NCI-H1618): > 2.56 µM
IC50 (NCI-H1734): > 2.56 µM
IC50 (NCI-H187): > 2.56 µM
IC50 (NCI-H2227): > 2.56 µM
IC50 (NCI-H322M): > 2.56 µM
IC50 (NCI-H716): > 2.56 µM
IC50 (OPM-2): 2.1 µM
IC50 (RT-4): > 2.56 µM
IC50 (SK-CO-1): > 2.56 µM
IC50 (SNG-M): > 2.56 µM
IC50 (SNU-475): > 2.56 µM
IC50 (SU-DHL-1): > 2.56 µM
IC50 (23132-87): > 2.56 µM
IC50 (C-4-II): > 2.56 µM
IC50 (THP-1): > 2.56 µM
IC50 (TT): > 2.56 µM
IC50 (TUR): > 2.56 µM
IC50 (YT): > 2.56 µM
IC50 (CCF-STTG1): > 2.56 µM
